In ChEMBL document CHEMBL1201862, “PubChem BioAssay data set” (2004):
Activity calls are given as the source filed them. Unless noted, the rule behind the calls is not given here.

What was measured:
[1] = inhibitors of orthopox intermediate gene expression, dose response, cell-based, single fluorophore reporter, dry powder (AID 1117271); assay type: functional
[2] = A549 cell cytotoxicity, dose response, CellTiter-Glo luminescence, dry powder, set 17 (AID 1117284); assay type: functional, cell-based
[3] = Single fluorophore orthopox expression reporter, late gene expression Measured in Cell-Based and Microorganism Combination System Using Plate Reader - 2142-08_Inhibitor_Dose_DryPowder_Activity.; assay type: functional
[4] = Orthopox viral replication plaque formation Measured in Cell-Based and Microorganism Combination System Using Imaging - 2142-05_Inhibitor_Dose_DryPowder_Activity.; assay type: functional
[5] = molecular target: Sphingosine 1-phosphate receptor 2 (Homo sapiens, UniProt O95136); experiment: Dose Response Cell Based Assay for Agonists of the S1P2 Receptor. [Related pubchem assays: 729, 736, 843 ]; assay type: functional
Chain of Sphingosine 1-phosphate receptor 2 (O95136 whole entry): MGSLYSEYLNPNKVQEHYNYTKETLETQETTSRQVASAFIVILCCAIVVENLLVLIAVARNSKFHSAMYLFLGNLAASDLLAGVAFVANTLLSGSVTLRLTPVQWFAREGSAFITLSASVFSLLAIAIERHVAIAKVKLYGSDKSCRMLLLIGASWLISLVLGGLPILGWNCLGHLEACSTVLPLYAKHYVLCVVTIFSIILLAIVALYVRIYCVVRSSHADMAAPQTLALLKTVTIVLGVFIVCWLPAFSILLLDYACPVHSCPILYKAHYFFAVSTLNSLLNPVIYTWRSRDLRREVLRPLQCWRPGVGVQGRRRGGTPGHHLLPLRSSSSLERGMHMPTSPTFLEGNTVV

Genome polyprotein = Genome polyprotein (Hepatitis C virus, UniProt Q2Q167); experiment: HCV core protein dimerization inhibitors, dose response, biochemical, TR-FRET (AID 2159); set-up: species or system Hepacivirus hominis;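 also: blocks dimerization of HCV core protein measured by TR-FRET between tagged core106 pairs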
Chain of Genome polyprotein (Q2Q167 whole entry): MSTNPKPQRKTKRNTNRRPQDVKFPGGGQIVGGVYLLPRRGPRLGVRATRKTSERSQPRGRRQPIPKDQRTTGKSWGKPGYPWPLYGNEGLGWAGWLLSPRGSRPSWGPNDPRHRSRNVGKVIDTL

[6] = Vero cell cytotoxicity, dose response, cytotoxicity control for Vif-APOBEC3G degradation inhibitor project, Vero cells (AID 1117358); assay type: functional; conditions: Human immunodeficiency virus 1, Vero
[7] = A549 cell cytotoxicity, dose response, cytotoxicity control, plate reader, dry powder, set 6 (AID 743312); assay type: functional, cell-based
cells [8] = conditions: HEK293
NADPH oxidase 1 = NADPH oxidase 1 (Homo sapiens, UniProt Q9Y5S8); experiment: Late-stage luminescence-based cell-based dose response assay to identify inhibitors of NADPH oxidase 1 (NOX1): Purchased analogs 2.; assay type: functional
Chain of NADPH oxidase 1 (Q9Y5S8 whole entry): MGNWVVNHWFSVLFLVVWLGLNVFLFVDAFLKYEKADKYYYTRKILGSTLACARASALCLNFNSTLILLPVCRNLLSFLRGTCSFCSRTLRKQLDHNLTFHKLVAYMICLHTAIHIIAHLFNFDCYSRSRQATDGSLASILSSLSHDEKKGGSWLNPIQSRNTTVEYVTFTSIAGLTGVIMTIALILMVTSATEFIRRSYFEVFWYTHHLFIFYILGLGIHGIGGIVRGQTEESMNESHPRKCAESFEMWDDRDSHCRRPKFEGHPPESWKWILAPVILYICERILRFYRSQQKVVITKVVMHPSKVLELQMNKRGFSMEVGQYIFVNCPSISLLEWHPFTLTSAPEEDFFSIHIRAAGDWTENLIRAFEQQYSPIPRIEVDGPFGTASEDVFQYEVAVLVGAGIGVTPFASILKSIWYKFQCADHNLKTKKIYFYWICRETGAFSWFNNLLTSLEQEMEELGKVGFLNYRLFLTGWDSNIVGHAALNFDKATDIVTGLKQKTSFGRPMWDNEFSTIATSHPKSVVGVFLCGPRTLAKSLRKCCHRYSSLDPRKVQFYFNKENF

cells [9] = assay type: functional, cell-based; conditions: INS-1E
[10] = Dose-response inhibition of insulin secretion in a rat insulinoma line at 5 mM glucose (AID 1117331); assay type: functional, cell-based; conditions: INS-1E
[11] = HeLa 4N DNA content increase, dose response, cell-based, IC50 (AID 1117351); assay type: functional
[12] = HeLa 2N DNA content increase, dose response, cell-based, IC50 (AID 1117349); assay type: functional
[13] = molecular target: E3 ubiquitin-protein ligase Mdm2 (Homo sapiens, UniProt Q00987); experiment: enhancers of MDM2-luciferase reporter signal, concentration-effect titration, project on inhibitors of MDM2 ubiquitin ligase, cellular assay, luminescent readout, 384-well plate format (AID 1394); assay type: functional;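 also: MDM2 E3 inhibitors raise luminescence so EC50 is for signal enhancement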
Chain of E3 ubiquitin-protein ligase Mdm2 (Q00987 whole entry): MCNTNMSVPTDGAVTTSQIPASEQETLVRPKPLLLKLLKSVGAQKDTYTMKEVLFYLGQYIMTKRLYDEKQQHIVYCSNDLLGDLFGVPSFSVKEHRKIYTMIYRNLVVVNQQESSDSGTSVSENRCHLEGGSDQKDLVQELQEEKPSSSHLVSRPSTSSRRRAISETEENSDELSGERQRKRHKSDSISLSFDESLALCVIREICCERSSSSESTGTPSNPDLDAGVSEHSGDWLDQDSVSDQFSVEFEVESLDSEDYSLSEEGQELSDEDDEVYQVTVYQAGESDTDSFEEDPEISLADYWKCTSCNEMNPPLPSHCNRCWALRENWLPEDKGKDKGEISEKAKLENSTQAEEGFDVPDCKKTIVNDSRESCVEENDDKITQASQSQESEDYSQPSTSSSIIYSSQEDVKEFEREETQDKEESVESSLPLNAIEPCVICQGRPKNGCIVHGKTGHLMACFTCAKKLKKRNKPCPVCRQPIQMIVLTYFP

With `C[C@@H](O)C#Cc1ccc2c(c1)O[C@@H](CN(C)Cc1ccc(-c3ccccc3Cl)cc1)[C@@H](C)CN([C@@H](C)CO)S2(=O)=O` as the molecule, how does the AC50 [1] read?
Its AC50 is 1.43 µM (active).

And the AC50 [2]?
The AC50 was > 52 µM (inactive).

What about the AC50 [3] of the same molecule?
Its AC50 is 1.18 µM (active).

What about the AC50 [4] of the same molecule?
The AC50 was 0.601 µM (active).

With `Cc1ccc(CNC(=O)CCNC(=O)c2ccco2)cc1` as the molecule, how does the EC50 [5] read?
The EC50 was > 50 µM (not active).

For `CC1(O)C(=O)C=C2C=C(c3ccc(C#N)cc3)OC=C2C1=O` (stereo not given), which IC50 (Genome polyprotein) is on record?
The IC50 was > 49.8 µM (not active).

For `Cc1ccc(S(=O)(=O)NCCCOC(=O)Nc2ccncc2)cc1`, which CC50 [6] is on record?
Its CC50 is > 40 µM (active).

Which AC50 [7] does the source give for `CC(C)c1ccccc1NCCn1c(=S)[nH]c2ccccc21` here?
Its AC50 is 21.1 µM (active).

What about the AC50 (cells [8]) of the same molecule?
Its AC50 is 27.5 µM (active).

For `COc1ccc(NS(=O)(=O)Cc2ccc(N)cc2)cc1`, which IC50 (NADPH oxidase 1) is on record?
Its IC50 is > 17 µM (not active).

With `Nc1ccc2cc3ccc(N)cc3nc2c1` [PROFLAVINE HEMISULFATE] as the molecule, how does the IC50 (cells [9]) read?
Its IC50 is > 33.3 µM (inactive).

What about the IC50 [10] of the same molecule?
The IC50 was 20.6 µM (inactive).

And the IC50 [11]?
The IC50 was > 10 µM (inactive).

And the IC50 [12]?
Its IC50 is > 10 µM (inactive).

For `CCOC(=O)C1CCN(C(=S)Nc2cc(C)ccc2C)CC1`, which EC50 [13] is on record?
Its EC50 is 4.34 µM (not active).
